Marks after values point to notes of the source that are not given here.
Legend:
[1] = molecular target: T1, human NaV1.1 channel (SCN1A, HEK293T cells) (Homo sapiens, UniProt P35498); design: method as in Milligan et al., 2022; conditions: NaV1.1 concentration-response of CBD; mean ± SEM; ref Milligan et al., 2022; cited from earlier work
T1 construct: expressed in transfected cells

[2] = molecular target: T2, human NaV1.2 channel (SCN2A, HEK293T cells) (Homo sapiens, UniProt Q99250); design: method as in Milligan et al., 2022; conditions: NaV1.2 concentration-response of CBD; mean ± SEM; ref Milligan et al., 2022; cited from earlier work
T2 construct: expressed in transfected cells
T2 sequence (Q99250 whole entry): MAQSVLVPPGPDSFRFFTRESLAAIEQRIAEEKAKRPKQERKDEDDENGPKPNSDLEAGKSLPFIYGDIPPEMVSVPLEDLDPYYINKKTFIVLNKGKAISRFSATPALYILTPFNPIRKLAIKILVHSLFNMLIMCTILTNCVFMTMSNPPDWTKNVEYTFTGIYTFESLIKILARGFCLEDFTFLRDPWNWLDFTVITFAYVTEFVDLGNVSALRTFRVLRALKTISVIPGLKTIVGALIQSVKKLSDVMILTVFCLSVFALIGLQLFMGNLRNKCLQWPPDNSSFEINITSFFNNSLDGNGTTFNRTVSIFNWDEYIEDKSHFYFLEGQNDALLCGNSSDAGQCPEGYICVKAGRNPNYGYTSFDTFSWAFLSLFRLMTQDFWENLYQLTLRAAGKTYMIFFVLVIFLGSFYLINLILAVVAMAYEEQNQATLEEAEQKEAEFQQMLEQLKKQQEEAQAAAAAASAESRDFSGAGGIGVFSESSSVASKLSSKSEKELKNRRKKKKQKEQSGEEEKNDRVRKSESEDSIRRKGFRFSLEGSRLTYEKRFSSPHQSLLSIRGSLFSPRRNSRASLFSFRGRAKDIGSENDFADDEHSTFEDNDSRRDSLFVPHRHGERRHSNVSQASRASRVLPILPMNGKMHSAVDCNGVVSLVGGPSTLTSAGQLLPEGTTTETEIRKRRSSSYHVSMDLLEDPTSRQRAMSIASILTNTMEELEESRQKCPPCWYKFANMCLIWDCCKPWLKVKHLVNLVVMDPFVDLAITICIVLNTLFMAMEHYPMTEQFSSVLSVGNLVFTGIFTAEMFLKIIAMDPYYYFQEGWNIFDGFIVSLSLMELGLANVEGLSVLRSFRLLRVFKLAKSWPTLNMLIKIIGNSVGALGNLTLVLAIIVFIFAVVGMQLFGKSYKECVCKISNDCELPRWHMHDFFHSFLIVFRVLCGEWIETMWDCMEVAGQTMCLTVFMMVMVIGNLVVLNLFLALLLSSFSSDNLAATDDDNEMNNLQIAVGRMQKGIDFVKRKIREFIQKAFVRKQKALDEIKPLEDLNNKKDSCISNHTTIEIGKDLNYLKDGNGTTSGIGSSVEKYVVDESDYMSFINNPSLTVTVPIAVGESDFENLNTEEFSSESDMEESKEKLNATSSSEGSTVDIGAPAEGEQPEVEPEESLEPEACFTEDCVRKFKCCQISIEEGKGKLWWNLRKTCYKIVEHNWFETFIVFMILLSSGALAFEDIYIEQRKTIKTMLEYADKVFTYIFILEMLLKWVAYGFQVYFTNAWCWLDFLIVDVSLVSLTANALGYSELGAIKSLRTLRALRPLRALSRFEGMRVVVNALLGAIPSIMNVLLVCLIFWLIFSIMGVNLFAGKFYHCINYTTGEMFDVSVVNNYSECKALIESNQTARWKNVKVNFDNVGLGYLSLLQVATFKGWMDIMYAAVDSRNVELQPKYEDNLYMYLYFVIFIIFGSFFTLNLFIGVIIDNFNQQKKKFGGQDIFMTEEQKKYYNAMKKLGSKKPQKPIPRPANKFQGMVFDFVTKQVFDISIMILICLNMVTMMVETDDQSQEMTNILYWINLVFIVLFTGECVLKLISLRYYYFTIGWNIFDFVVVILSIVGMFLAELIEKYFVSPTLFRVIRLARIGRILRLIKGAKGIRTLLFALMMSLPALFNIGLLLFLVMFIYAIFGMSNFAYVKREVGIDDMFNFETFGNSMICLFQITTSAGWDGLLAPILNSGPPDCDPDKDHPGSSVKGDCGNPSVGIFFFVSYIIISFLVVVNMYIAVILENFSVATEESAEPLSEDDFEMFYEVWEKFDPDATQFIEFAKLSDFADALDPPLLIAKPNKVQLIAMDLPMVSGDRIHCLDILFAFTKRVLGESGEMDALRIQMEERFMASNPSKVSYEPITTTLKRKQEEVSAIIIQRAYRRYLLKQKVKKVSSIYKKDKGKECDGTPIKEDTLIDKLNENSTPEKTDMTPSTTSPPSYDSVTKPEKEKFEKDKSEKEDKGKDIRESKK

[3] = system: patients with Dravet syndrome (DS) and Lennox-Gastaut syndrome (LGS); design: method as in earlier work; conditions: Phase III clinical trials, ref Devinsky et al., 2017a, 2017b, 2018, 2020, 2021, Tang and Fang; cited from earlier work
[4] = molecular target: T2, human NaV1.2 channel (SCN2A, HEK293T cells); assay: Planar patch-clamp, biophysical properties (activation, SSFI, recovery from SSFI); assay type: cell-based; conditions: change vs vehicle DMSO at IC50 concentration (CBD 18.4 μM, CBGA 14.7 μM, CBDVA 60 μM)
Procedure: (§1) HEK293T cells stably expressing SCN1A or SCN2A and CHO cells stably expressing SCN8A or SCN9A were maintained as previously described ([Richards et al., 2018]; [Milligan et al., 2022]).
(§2) Patch-clamp recordings were made using a Patchliner® (Nanion Technologies, Munich, Germany) in the whole-cell configuration as previously described ([Richards et al., 2018]; [Milligan et al., 2022]). Briefly, cells were prepared in suspension at a density of 1 × 10^6-5 × 10^7 cells/mL. The external recording solution comprised (in mM): 140 NaCl, 4 KCl, 1 MgCl2, 2 CaCl2, 5 D-glucose, 10 HEPES, pH 7.4 with NaOH, ∼295 mOsm. The internal recording solution comprised (in mM): 50 CsCl, 60 CsF, 10 NaCl, 20 EGTA, 10 HEPES, pH 7.2 with CsOH, ∼285 mOsm. Medium single-hole planar NPC-16 chips with an average resistance of ∼2.5 MΩ were used. Chip and whole-cell capacitance were fully compensated, and 50% series resistance compensation applied. Recordings were acquired at 50 kHz with the low pass filter set to 10 kHz in PATCHMASTER (HEKA Instruments, NY, United States) and performed at 27°C. Offline analysis was performed using Microsoft Excel, MatLab R2019a (MathWorks) and GraphPad Prism 8 (Molecular Devices).
(§3) Voltage protocols were used, as previously described ([Richards et al., 2018]). Briefly, to study the voltage-dependence of activation, cells were held at −120 mV and depolarized to test potentials, in 5 mV increments, between −120 mV and +50 mV for 100 ms. To study steady-state fast inactivation, cells were held at conditioning pre-pulse potentials ranging from −120 mV to +30 mV in 5 mV increments from a holding potential of −120 mV and a test pulse at 5 mV for 20 ms. Recovery from fast inactivation was studied by pre-pulsing the cells to 0 mV from a holding potential of −120 mV for 50 ms, to fully inactivate channels. The voltage was then stepped back to the holding potential for variable interpulse intervals (ipi from 0 to 39 ms in 3 ms increments). To test channel availability, the voltage was stepped to 0 mV for 50 ms.
(§4) To examine the voltage-dependence of activation, normalized current-voltage (I-V) relationships were converted to conductance (G) using the following equation: G = I/(V−V r ) where Vr is the reversal potential for Na^+. The voltage-dependence of conductance and availability were normalized and fitted to a Boltzmann equation: G = 1/(1 + exp [(V−V 0.5)/a]), where a is the slope of the half-maximum, V is the potential of the given pulse, and V 0.5 is the potential for the half-maximal activation/inactivation. The time course of inactivation was fitted to a single exponential function I/Imax = I0+A*exp (-t-t0/τ)+C, where I0 is the non-inactivating component, Imax is the peak current, t is time, and A is the component for the time constant τ. Time constants were plotted against voltage and the data fitted with a decaying exponential equation Y = span*exp (−K*x)+plateau, where span is the starting point of the curve, K is the decay factor, plateau is the value the curve decays to, and x is time. To measure recovery from inactivation, normalized currents were plotted against ipi and data fitted with equation I/I max = 1-exp/(rc + x), where I max is maximal current; rc recovery rate constant; x is time. Peak current (I) was plotted as fractional recovery against the recovery period by normalizing to the maximum current (Imax) during the conditioning potentials.

[5] = molecular target: T3, human NaV1.7 channel (SCN9A, CHO cells) (Homo sapiens, UniProt Q15858); assay: as above; assay type: cell-based; conditions: change vs vehicle DMSO at IC50 concentration (CBD 11.9 μM, CBGA 16.4 μM, CBDVA 60 μM)
T3 construct: expressed in transfected cells
T3 sequence (Q15858 whole entry): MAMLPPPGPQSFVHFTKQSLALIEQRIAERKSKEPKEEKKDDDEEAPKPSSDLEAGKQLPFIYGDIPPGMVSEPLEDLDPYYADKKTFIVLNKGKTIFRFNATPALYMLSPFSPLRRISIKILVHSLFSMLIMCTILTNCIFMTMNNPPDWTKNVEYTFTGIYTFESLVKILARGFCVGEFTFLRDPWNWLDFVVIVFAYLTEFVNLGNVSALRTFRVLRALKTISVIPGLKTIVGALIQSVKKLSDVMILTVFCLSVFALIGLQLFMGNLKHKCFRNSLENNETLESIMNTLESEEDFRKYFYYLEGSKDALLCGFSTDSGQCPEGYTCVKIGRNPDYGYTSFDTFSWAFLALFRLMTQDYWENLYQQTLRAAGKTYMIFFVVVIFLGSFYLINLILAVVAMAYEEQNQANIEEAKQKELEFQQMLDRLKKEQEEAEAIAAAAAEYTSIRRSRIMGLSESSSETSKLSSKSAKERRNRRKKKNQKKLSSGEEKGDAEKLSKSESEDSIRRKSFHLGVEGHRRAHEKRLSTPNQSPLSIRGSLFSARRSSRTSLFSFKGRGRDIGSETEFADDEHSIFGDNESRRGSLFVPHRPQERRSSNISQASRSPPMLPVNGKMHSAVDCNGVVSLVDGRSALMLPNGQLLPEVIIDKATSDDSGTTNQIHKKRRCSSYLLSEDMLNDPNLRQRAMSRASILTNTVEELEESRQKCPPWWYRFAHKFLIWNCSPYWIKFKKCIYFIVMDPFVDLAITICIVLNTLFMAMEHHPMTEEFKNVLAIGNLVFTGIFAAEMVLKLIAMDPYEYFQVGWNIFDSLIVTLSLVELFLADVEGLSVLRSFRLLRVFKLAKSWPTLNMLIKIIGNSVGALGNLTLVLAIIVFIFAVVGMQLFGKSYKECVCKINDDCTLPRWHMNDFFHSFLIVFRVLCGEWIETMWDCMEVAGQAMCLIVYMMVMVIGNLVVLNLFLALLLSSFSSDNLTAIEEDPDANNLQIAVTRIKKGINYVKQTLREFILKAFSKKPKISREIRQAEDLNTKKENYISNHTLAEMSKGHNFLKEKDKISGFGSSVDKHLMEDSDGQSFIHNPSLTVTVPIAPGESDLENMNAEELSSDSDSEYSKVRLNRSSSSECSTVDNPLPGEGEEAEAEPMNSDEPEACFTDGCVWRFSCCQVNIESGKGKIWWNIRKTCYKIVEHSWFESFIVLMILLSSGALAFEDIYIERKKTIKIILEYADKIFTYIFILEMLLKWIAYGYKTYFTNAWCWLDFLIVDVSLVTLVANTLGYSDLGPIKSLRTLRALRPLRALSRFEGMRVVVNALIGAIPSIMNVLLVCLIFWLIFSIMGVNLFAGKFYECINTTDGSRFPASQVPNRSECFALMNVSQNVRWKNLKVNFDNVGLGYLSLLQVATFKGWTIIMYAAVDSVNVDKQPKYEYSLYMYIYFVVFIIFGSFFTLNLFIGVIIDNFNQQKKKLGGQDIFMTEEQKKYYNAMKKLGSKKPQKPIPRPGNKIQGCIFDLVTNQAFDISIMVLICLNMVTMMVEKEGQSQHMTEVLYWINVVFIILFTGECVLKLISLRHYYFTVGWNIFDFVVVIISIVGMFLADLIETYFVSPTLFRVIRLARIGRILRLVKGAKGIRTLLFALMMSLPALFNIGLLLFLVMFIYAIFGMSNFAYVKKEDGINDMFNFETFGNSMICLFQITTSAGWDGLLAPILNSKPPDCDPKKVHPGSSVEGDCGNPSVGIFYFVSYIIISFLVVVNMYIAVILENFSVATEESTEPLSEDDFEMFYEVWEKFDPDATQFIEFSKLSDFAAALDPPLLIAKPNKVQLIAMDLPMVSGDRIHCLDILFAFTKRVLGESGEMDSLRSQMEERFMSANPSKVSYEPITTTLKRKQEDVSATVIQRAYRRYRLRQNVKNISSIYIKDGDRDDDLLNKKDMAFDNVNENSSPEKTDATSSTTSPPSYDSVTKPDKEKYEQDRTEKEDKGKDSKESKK
Procedure: as §1, §2, §3, §4

[6] = molecular target: T4, human NaV1.6 channel (SCN8A, CHO cells) (Homo sapiens, UniProt Q9UQD0); assay: as above; assay type: cell-based; conditions: change vs vehicle DMSO at IC50 concentration (CBD 16.6 μM, CBGA 12.0 μM, CBDVA 24.1 μM)
T4 construct: expressed in transfected cells
Procedure: as §1, §2, §3, §4

[7] = molecular target: T1, human NaV1.1 channel (SCN1A, HEK293T cells); assay: as above; assay type: cell-based; conditions: change vs vehicle DMSO at IC50 concentration (CBD 18.5 μM, CBGA 13.6 μM, CBDVA 50 μM)
Procedure: as §1, §2, §3, §4

[8] = molecular target: T4, human NaV1.6 channel (SCN8A, CHO cells); design: method as in Milligan et al., 2022; conditions: NaV1.6 concentration-response of CBD; mean ± SEM; ref Milligan et al., 2022; cited from earlier work
[9] = system: mouse models of neuropathic pain; design: method as in Abraham et al., 2020; Casey et al., 2022; conditions: ref Abraham et al., 2020, Casey et al., 2022; cited from earlier work
[10] = molecular target: T3, human NaV1.7 channel (SCN9A, CHO cells); design: method as in Milligan et al., 2022; conditions: NaV1.7 concentration-response of CBD; mean ± SEM; ref Milligan et al., 2022; cited from earlier work

Structure (SMILES): C=C(C)[C@@H]1CCC(C)=C[C@H]1c1c(O)cc(CCCCC)cc1O [CBD, cannabidiol, reference compound]
- Slope (Hill slope coefficient) [1]: 2.1 ± 0.8
- Slope (Hill slope coefficient) [2]: 1.4 ± 0.4
- Effect on seizures in patients [3]: reduced seizures
- Inactivation △ V0.5 inact ([4]; SSFI): −4.2 ± 1.9 mV
- Inactivation △ slope factor ([4]; SSFI): 0.1 ± 0.2
- Activation △ Slope factor [4]: 1.0 ± 0.3*
- Activation △ V0.5 act [4]: 3.3 ± 2.7 mV
- Inactivation △ τinact SSFI at 5 mV [4]: 0.08 ± 0.07
- Inactivation △ V0.5 inact ([5]; SSFI): −3.7 ± 1.2** mV
- Inactivation △ slope factor ([5]; SSFI): 1.2 ± 0.3***
- Activation △ Slope factor [5]: 1.9 ± 0.3****
- Activation △ V0.5 act [5]: 5.7 ± 2.3* mV
- Inactivation △ τinact SSFI at 5 mV [5]: 0.3 ± 0.1*
- Inactivation △ V0.5 inact ([6]; SSFI): −5.3 ± 3.6 mV
- Inactivation △ slope factor ([6]; SSFI): −0.3 ± 0.7
- Activation △ Slope factor [6]: 0.2 ± 0.2
- Activation △ V0.5 act [6]: −0.6 ± 1.1 mV
- Inactivation △ τinact SSFI at 5 mV [6]: 0.03 ± 0.06
- Inactivation △ V0.5 inact ([7]; SSFI): −5.6 ± 1.1**** mV
- Inactivation △ slope factor ([7]; SSFI): 0.5 ± 0.3
- Activation △ Slope factor [7]: 0.7 ± 0.2**
- Activation △ V0.5 act [7]: 0.3 ± 1.2 mV
- Inactivation △ τinact SSFI at 5 mV [7]: 0.03 ± 0.02
- Slope (Hill slope coefficient) [8]: 1.3 ± 0.4
- Effect on allodynia [9]: reduced allodynia
- Slope (Hill slope coefficient) [10]: 3.1 ± 0.6

From article PMC9986306, “Beyond CBD: Inhibitory effects of lesser studied phytocannabinoids on human voltage-gated sodium channels” (Frontiers in Physiology, 2023)
